Data taken from patent US20150297564A1 (CORNELL UNIVERSITY, priority 2014, published 2015).

How the values were obtained:
[1] = test system: PDX1; test: Islet PDX1 protein level (Western blot); format: cell-based, mouse
Source text: (§1) All chemicals were purchased from Sigma (Saint Louis, Mo.) unless indicated otherwise. Detailed protocols, reagents, and instruments for islet isolation, culture, and insulin secretion were the same as described previously (Wang et al., “Molecular Mechanisms for Hyperinsulinaemia Induced by Overproduction of Selenium-Dependent Glutathione Peroxidase-1 in Mice,” Diabetologia 51:1515-1524 (2008), which is hereby incorporated by reference in its entirety). Briefly, Langerhans' islets were isolated from the WT, GKO, SKO, and dKO mice using a standard procedure (Gotoh et al., “An Improved Method for Isolation of Mouse Pancreatic Islets,” Transplantation 40:437-438 (1985), which is hereby incorporated by reference in its entirety) with minor modifications. Isolated islets (50 per sample, n=3 per group) were recovered in RPMI 1640 (Gibco, Grand Island, N.Y.) with 5.5 mM glucose and 10% FBS for 2 hours before treatment. For the islet experiments, ebselen, CuDIPs, and Se (sodium selenite) were used at 50, 10, and 0.1 μM and prepared in DMSO, ethanol, and saline, respectively. The same amounts of vehicle were used as the respective controls. The chemicals were removed after 5 hour incubation, and the islets were transferred to Krebs-Henseleit buffer for 30 min and then incubated for 60 min with 2.8 or 16.7 mM glucose in the same buffer. The supernatants were collected for insulin analysis and the islets were used for mRNA, protein, and enzyme activity analyses.
(§2) Islet samples used for Western blot analysis were homogenized in phosphate buffer (50 mM, pH 7.4) containing 0.1% Triton X-100 and protease inhibitor mixture (AEBSF, aprotinin, bestatin hydrochloride, E-64-[N-(transepoxysuccinyl)-L-leucine 4-guanidinobutylamide], leupeptin, and pepstatin A). The homogenates were centrifuged at 14000×g for 10 min at 4° C. A total of 10 μg of protein per lane was subjected to Western blot analysis (McClung et al., “Development of Insulin Resistance and Obesity in Mice Overexpressing Cellular Glutathione Peroxidase,” Proc. Natl. Acad. Sci. USA 101:8852-8857 (2004), which is hereby incorporated by reference in its entirety). After the gel electrophoresis, the separated proteins were transferred onto a protran BA85 nitrocellulose membrane (Schleicher Schuell Bioscience, Keene, N.H.). The membranes were incubated first with respective primary antibodies (rabbit anti-GLUT2, anti-PDX1, and anti-UCP2, Millipore, Billerica, Mass.), and thereafter the second antibody against rabbit IgG (Bio-Rad, Hercules, Calif.). For loading and transfer normalization, the rabbit anti-β-actin antibody (Cell Signaling, Beverly, Mass.) was used. An enhanced chemiluminescent kit (Pierce, Rockford, Ill.) was used for detection of the band intensity.

[2] = test system: GLUT2; test: Islet GLUT2 protein level (Western blot); format: cell-based, mouse
Source text: as §1, §2

[3] = test system: UCP2; test: Islet UCP2 protein level (Western blot); format: cell-based, mouse
Source text: as §1, §2

[4] = test system: GK; test: Islet GK enzyme activity after treatment; format: cell-based, mouse
Source text: as §1
(§3) Islet GK activity was assayed at 28° C. by measuring absorbance increases of NADPH at 340 nm in a coupled enzyme system. One unit of GK activity was defined as the amount that catalyzes the formation of 1 μmole of glucose 6-phosphate per minute. Islet and liver LDH activities were measured using a kit from Sigma according to the manufacturer's instructions. Islet and liver GSR activities were measured as previously-described (Zhu et al., “Double Null of Selenium-Glutathione Peroxidase-1 and Copper, Zinc-Superoxide Dismutase Enhances Resistance of Mouse Primary Hepatocytes to Acetaminophen Toxicity,” Exp. Biol. Med. (Maywood) 231:545-552 (2006), which is hereby incorporated by reference in its entirety) and one unit of activity was defined as 1 nmol of glutathione disulfide reduced per minute. Plasma ALT activity was assayed using a kit (Thermo Scientific, Waltham, Mass.) according to the manufacturer's instructions. Plasma AKP activity was measured by the hydrolysis of p-nitrophenol phosphate to p-nitrophenol, and the enzyme activity unit was defined as the amount of activity that releases 1 μmol of p-nitrophenol per minute at 30° C. (Bowers et al., “A Continuous Spectrophotometric Method for Measuring the Activity of Serum Alkaline Phosphatase,” Clin. Chem. 12:70-89 (1966), which is hereby incorporated by reference in its entirety).

[5] = test system: islets isolated from WT, GKO, SKO, and dKO mice; test: Glucose-stimulated insulin secretion (GSIS) of isolated islets; format: cell-based, mouse; settings: for GSIS (insulin secretion) versus solvent control: 16.7 mM glucose, 5 hour pre-treatment
Source text: as §1

[6] = test system: GKO mice; test: Glucose tolerance test (GTT) in GKO mice; format: in vivo, mouse; settings: fasted GKO mice, 50 mg/kg i.p., glucose 1 g/kg
Protocol: (§4) Ebselen was dissolved in dimethyl sulfoxide (DMSO) and injected with saline (1:1 by volume) together. The same volume of DMSO and saline was used as the solvent control. Blood glucose concentrations were measured by clipping tails and using the Glucometer Elite system (Bayer, Elkhart, Ind.). Plasma insulin concentrations were determined using a rat/mouse Insulin ELISA kit with mouse insulin as standards (Crystal Chem, Downers Grove, Ill.).

[7] = test system: intracellular ROS; test: Islet intracellular ROS (DCFH-DA probe); format: cell-based, mouse; settings: GKO islets, DCF probe
Protocol: Islet ROS levels were determined using the fluorescent probe, 2′,7′-dichlorofluorescin diacetate (“DCFH-DA”). Briefly, the treated islets were washed and incubated with DCFH-DA (20 μM) for 10 min at 37° C. After removal of the probe, cells were washed with pre-warmed PBS. Fluorescence was monitored at 488 nm excitation and 525 nm emission wavelengths.

[8] = i.p. in 4% w/v hydroxypropyl-β-cyclodextrin to C57BL/6 mice or suspended in water orally to humans; cited from earlier work
[9] = test system: lactate dehydrogenase (LDH); test: Islet LDH activity; format: cell-based, mouse; settings: WT and GKO islets
Protocol: as §3

[10] = test system: GKO mice; test: In vivo GSIS test in GKO mice (plasma insulin); set-up: species or system mouse; settings: fasted GKO mice
Protocol: as §4

[11] = molecular target: T1, glutathione reductase (GSR) (Mus musculus, UniProt P47791); test: Islet GSR activity; format: cell-based; settings: WT and GKO islets
T1 construct: from tissue; host or cells: isolated pancreatic islets of WT and GKO mice
T1 sequence (P47791 27-500): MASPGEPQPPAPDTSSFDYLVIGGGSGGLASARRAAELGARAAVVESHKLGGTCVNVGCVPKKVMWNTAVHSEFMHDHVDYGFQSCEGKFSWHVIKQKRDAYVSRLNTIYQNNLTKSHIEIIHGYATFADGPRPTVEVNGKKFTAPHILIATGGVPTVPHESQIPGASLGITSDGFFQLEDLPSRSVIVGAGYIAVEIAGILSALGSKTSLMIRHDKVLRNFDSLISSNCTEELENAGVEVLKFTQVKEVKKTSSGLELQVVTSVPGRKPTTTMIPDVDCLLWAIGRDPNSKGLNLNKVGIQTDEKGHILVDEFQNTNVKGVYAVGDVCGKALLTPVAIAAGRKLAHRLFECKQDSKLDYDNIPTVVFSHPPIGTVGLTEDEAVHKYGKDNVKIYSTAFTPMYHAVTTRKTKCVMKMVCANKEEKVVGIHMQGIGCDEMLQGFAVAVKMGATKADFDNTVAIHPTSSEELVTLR
Protocol: as §3

[12] = test system: GKO mice; test: Off-target toxicity in GKO mice (plasma ALT, AKP; liver LDH, GSR); format: in vivo, mouse; settings: 50 mg/kg i.p., 1 hour
Protocol: as §4, §3

[13] = test system: gk, glut2, pdx1, ucp2 and genes in the ARE, GR, Wnt and NFAT pathways; test: Real time Q-PCR of islet mRNA levels (GSIS regulators, ARE, GR, Wnt, NFAT pathway genes); format: cell-based, mouse; settings: dKO islets
Source text: All chemicals were purchased from Sigma (Saint Louis, Mo.) unless indicated otherwise. Detailed protocols, reagents, and instruments for islet isolation, culture, and insulin secretion were the same as described previously (Wang et al., “Molecular Mechanisms for Hyperinsulinaemia Induced by Overproduction of Selenium-Dependent Glutathione Peroxidase-1 in Mice,” Diabetologia 51:1515-1524 (2008), which is hereby incorporated by reference in its entirety). Briefly, Langerhans' islets were isolated from the WT, GKO, SKO, and dKO mice using a standard procedure (Gotoh et al., “An Improved Method for Isolation of Mouse Pancreatic Islets,” Transplantation 40:437-438 (1985), which is hereby incorporated by reference in its entirety) with minor modifications. Isolated islets (50 per sample, n=3 per group) were recovered in RPMI 1640 (Gibco, Grand Island, N.Y.) with 5.5 mM glucose and 10% FBS for 2 hours before treatment. […]
Total RNA was extracted from islets using Trizol reagent (Invitrogen, Carlsbad, Calif.). […] Relative mRNA levels were determined by real time Q-PCR (7900HT; Applied Biosystems, Foster City, Calif.) as previously described (Pepper et al., “Impacts of Dietary Selenium Deficiency on Metabolic Phenotypes of Diet-Restricted GPX1-Overexpressing Mice,” Antioxid. Redox Signal. 14:383-390 (2011), which is hereby incorporated by reference in its entirety).

O=[Se]([O-])[O-].[Na+].[Na+] [Na2SeO3, sodium selenite]
PDX1 protein change versus control (direction) ([1]; dKO islets): Neither CuDIPs nor Na2SeO3 affected | GLUT2 protein change versus control (direction) ([2]; dKO islets): Neither CuDIPs nor Na2SeO3 affected | UCP2 protein change versus control (direction) ([3]; dKO islets): Neither CuDIPs nor Na2SeO3 affected | GK activity change versus control (direction) ([4]; GKO islets): increased | GK activity change versus control (direction) ([4]; SKO islets): decreased | GK activity change versus control (direction) ([4]; dKO islets): Neither CuDIPs nor Na2SeO3 affected | GSIS (insulin secretion) versus solvent control ([5]; GKO islets): did not affect | GSIS (insulin secretion) versus solvent control ([5]; SKO islets): elevated | GSIS (insulin secretion) versus solvent control ([5]; WT islets): did not affect | GSIS (insulin secretion) versus solvent control ([5]; dKO islets): elevated

O=c1c2ccccc2[se]n1-c1ccccc1 [ebselen]
PDX1 protein elevation versus control ([1]; GKO islets): 4.0 fold | PDX1 protein elevation versus control ([1]; SKO islets): 3.2 fold | PDX1 protein elevation versus control ([1]; WT islets): 5.5 fold | GLUT2 protein elevation versus control ([2]; GKO islets): 2.1 fold | GLUT2 protein elevation versus control ([2]; SKO islets): 6.4 fold | GLUT2 protein elevation versus control ([2]; WT islets): 4.9 fold | GLUT2 protein elevation versus control ([2]; dKO islets): 85% | glucose clearance improved ([6]; 15 min): 17% | glucose clearance improved ([6]; 30 min): 18% | glucose clearance improved ([6]; 60 min): 21% | decrease of intracellular ROS [7]: 74% | absorption [8]: absorbed to blood | blood-brain barrier crossing [8]: crossed the blood-brain barrier | effect on LDH activity [9]: no effect | elevation of plasma insulin concentration versus control ([10]; 50 mg/kg i.p. 1 hour before glucose challenge, 0 min (baseline)): 95% | elevation of plasma insulin concentration versus control ([10]; 50 mg/kg i.p., 15 min after the glucose challenge): 1.2 fold | elevation of plasma insulin concentration versus control ([10]; 50 mg/kg i.p., 30 min after the glucose challenge): 91% | effect on GSR activity [11]: no effect | GK activity elevation versus control ([4]; GKO islets): 20% | GK activity elevation versus control ([4]; SKO islets): 86% | GK activity elevation versus control ([4]; WT islets): 74% | GK activity elevation versus control ([4]; dKO islets): 58% | hepatic GSR activity versus control [12]: no differences | hepatic LDH activity versus control [12]: no differences | plasma alanine aminotransferase (ALT) activity versus control [12]: no differences | plasma alkaline phosphatase (AKP) activity versus control [12]: no differences

copper diisopropylsalicylate [CuDIPs]
PDX1 protein elevation versus control ([1]; SKO islets): 2.4 fold | PDX1 protein change versus control (direction) ([1]; WT islets): increased | PDX1 protein change versus control (direction) ([1]; dKO islets): Neither CuDIPs nor Na2SeO3 affected | GLUT2 protein change versus control (direction) ([2]; GKO islets): increase | GLUT2 protein elevation versus control ([2]; SKO islets): 63% | GLUT2 protein change versus control (direction) ([2]; WT islets): increased | GLUT2 protein change versus control (direction) ([2]; dKO islets): Neither CuDIPs nor Na2SeO3 affected | UCP2 protein decrease versus control ([3]; SKO islets): 78% | UCP2 protein change versus control (direction) ([3]; WT islets): increased | UCP2 protein change versus control (direction) ([3]; dKO islets): Neither CuDIPs nor Na2SeO3 affected | GK activity change versus control (direction) ([4]; GKO islets): decrease | GK activity change versus control (direction) ([4]; dKO islets): Neither CuDIPs nor Na2SeO3 affected | expression of genes in the four pathways (ARE, GR, Wnt, NFAT) versus controls [13]: suppressed | baseline insulin secretion versus solvent control ([5]; SKO islets, 2.8 mM glucose): promoted | GSIS (insulin secretion) versus solvent control ([5]; SKO islets): promoted | GSIS (insulin secretion) versus solvent control ([5]; WT islets): no effect
